In brackets after ≈: the same amount, converted by molar mass.
Legend:
HeLa [1] = test: Anticancer activity against human HeLa cells assessed as reduction in cell growth; type: functional, cell-based
4T1 = test: Anticancer activity against mouse 4T1 cells assessed as reduction in cell growth; type: functional, cell-based
MDA-MB-231 [2] = test: Cytotoxicity against human MDA-MB-231 cells assessed as reduction in cell viability incubated for 24 hrs by CCK-8 assay; type: functional, cell-based; conditions: MDA-MB-231, 24 h
HeLa [3] = test: Antiproliferative activity against human Hela cells by MTT assay; type: functional, cell-based
CAL-27 = test: Antiproliferative activity against human CAL-27 cells assessed as reduction in cell viability incubated for 24 hrs by MTT assay; type: functional, cell-based; conditions: CAL-27, 24 h
[4] = target: Lysine-specific demethylase 5C (Homo sapiens, UniProt P41229); test: Inhibition of KDM5C (unknown origin)
MDA-MB-231 [5] = test: Antiproliferative activity against human MDA-MB-231 cells assessed as reduction in cell viability incubated for 72 hrs by Celltiter-Glo reagent based assay; type: functional; conditions: MDA-MB-231, 72 h
HepG2 [6] = test: Antiproliferative activity against human HepG2 cells assessed as reduction in cell viability incubated for 72 hrs by Celltiter-Glo reagent based assay; type: functional; conditions: HepG2, 72 h
HepG2 [7] = test: Cytotoxicity against human HepG2 cells assessed as reduction in cell viability incubated for 24 hrs by CCK-8 assay; type: functional, cell-based; conditions: HepG2, 24 h
U-87 MG = test: Antiproliferative activity against human U-87 MG cells assessed as reduction in cell viability by MTT assay; type: functional, cell-based, U-87MG ATCC
HCC1806 = test: Antiproliferative activity against human HCC1806 cells assessed as inhibition of cell growth at 30 uM relative to control; type: functional
MDA-MB-231 [8] = test: Antiproliferative activity against human MDA-MB-231 cells by CCK8 assay; type: functional, cell-based
SMMC-7721 = test: Antiproliferative activity against human SMMC-7721 cells by CCK8 assay; type: functional, cell-based
QGY-7703 = test: Antiproliferative activity against human QGY-7703 cells by CCK8 assay; type: functional, cell-based
L02 = test: Antiproliferative activity against human L02 cells by CCK8 assay; type: functional, cell-based
[9] = test system: Mycobacterium tuberculosis; test: Antimycobacterial activity against Mycobacterium tuberculosis H37Rv assessed as bacterial growth inhibition by microplate Alamar blue assay; type: functional
HeLa [10] = test: Antiproliferative activity against human HeLa cells assessed as reduction in cell viability by MTT assay; type: functional, cell-based
HeLa [11] = test: Antiproliferative activity against human HeLa cells; type: functional, cell-based
MCF7 [12] = test: Antiproliferative activity against human MCF7 cells assessed as reduction in cell growth; type: functional, cell-based
KBv200 = test: Cytotoxicity against human KBv200 cells assessed as reduction in cell viability incubated for 72 hrs by SRB assay; type: functional, cell-based; conditions: KBv200, 72 h
K562/Adr [13] = test: Antiproliferative activity against human K562/Adr cells assessed as reduction in cell growth incubated for 72 hrs by MTT assay; type: functional, cell-based
K562/Adr [14] = test: Reversal of multidrug resistance in human K562/Adr cells assessed as reversal fold by measuring ratio of adriamycin IC50 to adriamycin IC50 in presence of test compound at 10 uM; type: functional
[15] = target: Indoleamine 2,3-dioxygenase 1 (Homo sapiens, UniProt P14902); test: Inhibition of N-terminal His-tagged human IDO1 extracted from Escherichia coli
Candida albicans = test: Antifungal activity against Candida albicans MTCC 3020 assessed as reduction in fungal growth; type: functional
MCF7 [16] = test: Antiproliferative activity against human MCF7 cells assessed as reduction in cell viability incubated for 72 hrs by MTT assay; type: functional, cell-based; conditions: MCF7, 72 h
HCT-116 [17] = test: Antiproliferative activity against human HCT-116 cells by MTT assay; type: functional, cell-based
HCT-116 [18] = test: Antiproliferative activity against human HCT-116 cells assessed as inhibition of cell growth at 20 uM incubated for 48 hrs by MTT assay relative to control; type: functional
A549 = test: Antiproliferative activity against human A549 cells assessed as inhibition of cell growth at 20 uM incubated for 48 hrs by MTT assay relative to control; type: functional
K562 = test: Antiproliferative activity against human K562 cells assessed as reduction in cell viability incubated for 72 hrs by Celltiter-Glo reagent based assay; type: functional; conditions: K562, 72 h
Jurkat = test: Antiproliferative activity against human Jurkat cells assessed as reduction in cell viability incubated for 72 hrs by Celltiter-Glo reagent based assay; type: functional

Indoleamine 2,3-dioxygenase 1, sequence (P14902 whole entry): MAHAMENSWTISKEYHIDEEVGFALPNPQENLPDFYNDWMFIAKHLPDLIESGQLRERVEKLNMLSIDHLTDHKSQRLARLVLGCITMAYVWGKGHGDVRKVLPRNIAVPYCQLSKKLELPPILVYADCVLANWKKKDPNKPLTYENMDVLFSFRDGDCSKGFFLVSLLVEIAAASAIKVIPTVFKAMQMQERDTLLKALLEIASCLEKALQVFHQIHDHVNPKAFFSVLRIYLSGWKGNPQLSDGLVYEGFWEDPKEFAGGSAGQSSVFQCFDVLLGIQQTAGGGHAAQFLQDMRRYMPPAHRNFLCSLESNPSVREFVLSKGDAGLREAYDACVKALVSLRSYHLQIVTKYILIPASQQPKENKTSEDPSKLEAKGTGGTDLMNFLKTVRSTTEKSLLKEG
Lysine-specific demethylase 5C, sequence (P41229 whole entry): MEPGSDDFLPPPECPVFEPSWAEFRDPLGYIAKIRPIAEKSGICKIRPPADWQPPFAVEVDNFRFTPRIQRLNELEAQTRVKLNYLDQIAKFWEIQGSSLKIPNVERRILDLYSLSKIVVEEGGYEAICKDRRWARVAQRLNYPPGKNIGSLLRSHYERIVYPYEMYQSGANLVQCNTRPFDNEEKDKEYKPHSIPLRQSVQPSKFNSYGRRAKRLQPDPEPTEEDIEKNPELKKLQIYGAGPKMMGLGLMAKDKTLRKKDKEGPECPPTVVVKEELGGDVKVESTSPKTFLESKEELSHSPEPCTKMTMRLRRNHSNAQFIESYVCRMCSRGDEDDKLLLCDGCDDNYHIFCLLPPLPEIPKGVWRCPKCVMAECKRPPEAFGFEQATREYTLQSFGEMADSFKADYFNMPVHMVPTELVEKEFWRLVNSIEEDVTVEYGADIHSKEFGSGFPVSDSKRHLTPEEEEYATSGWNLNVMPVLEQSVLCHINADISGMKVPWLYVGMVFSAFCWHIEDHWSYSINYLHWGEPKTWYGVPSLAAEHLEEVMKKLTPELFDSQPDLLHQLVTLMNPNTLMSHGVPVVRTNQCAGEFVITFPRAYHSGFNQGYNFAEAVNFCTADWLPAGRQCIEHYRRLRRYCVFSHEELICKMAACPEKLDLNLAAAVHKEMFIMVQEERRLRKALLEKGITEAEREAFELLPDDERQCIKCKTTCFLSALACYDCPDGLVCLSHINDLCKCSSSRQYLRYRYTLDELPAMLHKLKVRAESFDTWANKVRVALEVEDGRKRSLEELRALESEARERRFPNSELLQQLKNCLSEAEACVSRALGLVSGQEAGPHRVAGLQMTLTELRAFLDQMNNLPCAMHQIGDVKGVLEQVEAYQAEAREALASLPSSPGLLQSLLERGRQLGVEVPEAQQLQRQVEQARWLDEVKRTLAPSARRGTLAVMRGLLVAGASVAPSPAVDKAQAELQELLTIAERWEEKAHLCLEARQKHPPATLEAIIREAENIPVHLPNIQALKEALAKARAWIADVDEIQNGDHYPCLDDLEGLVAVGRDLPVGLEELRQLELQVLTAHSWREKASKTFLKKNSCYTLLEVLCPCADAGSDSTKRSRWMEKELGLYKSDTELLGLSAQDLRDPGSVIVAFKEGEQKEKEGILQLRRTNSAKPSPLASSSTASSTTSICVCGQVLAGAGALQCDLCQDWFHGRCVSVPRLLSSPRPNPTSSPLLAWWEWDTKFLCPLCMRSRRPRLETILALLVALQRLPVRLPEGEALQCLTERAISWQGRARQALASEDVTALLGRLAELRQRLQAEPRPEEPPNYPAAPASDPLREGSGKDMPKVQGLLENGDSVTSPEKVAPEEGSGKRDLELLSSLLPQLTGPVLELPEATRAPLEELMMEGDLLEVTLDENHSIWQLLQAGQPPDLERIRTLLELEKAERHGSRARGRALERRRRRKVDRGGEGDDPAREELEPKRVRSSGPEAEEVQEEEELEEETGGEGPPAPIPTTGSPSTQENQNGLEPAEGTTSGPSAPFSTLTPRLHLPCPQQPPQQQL

Cc1ccc2c(c1)C(=O)OC1(C)CCCCN21 (stereo not drawn) gave an IC50 (HeLa [1]) of 25.1 µg/mL (≈ 109 µM) and an IC50 (4T1) of 10.1 µg/mL (≈ 43.8 µM).
With COc1ccc2c(c1)CC(Nc1ccccc1)(C(F)(F)F)n1c-2nc2ccccc21 (stereo not drawn) the IC50 (MDA-MB-231 [2]) was 1300 nM.
Work on O=C(Nc1cccc2cccnc12)c1ccccc1-c1ccc2c(c1)c1ccccc1n2-c1ccccc1 yielded an IC50 (HeLa [3]) of 37100 nM.
O=c1[nH]c(/C=C2/C(c3ccccc3)=C(c3ccccc3)c3cc(C(F)(F)F)ccc32)nc2ccccc12 gave an IC50 (CAL-27) of 9410 nM.
With CCCCCCN(C)CCn1cc(-c2cccc(C(=O)O)c2)nn1 the IC50 [4] was 3010 nM.
For COc1ccc(-c2c(C3(O)C=CC(=O)C=C3)[nH]c(=O)c3c2c2ccccc2n3Cc2ccccc2)cc1, the IC50 (MDA-MB-231 [5]) was 660 nM and the IC50 (HepG2 [6]) was 1390 nM.
Work on FC(F)(F)C1(Nc2ccccc2)Cc2ccsc2-c2nc3ccccc3n21 (stereo not drawn) yielded an IC50 (HepG2 [7]) of 9600 nM.
Work on COC(=O)[C@@H](NC(=O)[C@H](CC(C)C)NC(=O)[C@H](Cc1ccccc1C1=CC(=O)C=CC1=O)NC(=O)[C@@H](NC(=O)OC(C)(C)C)C(C)(C)C)C(C)C yielded an IC50 (U-87 MG) of 32000 nM.
COC(=O)[C@@H]1Cc2c[nH]c3c(cccc23)/C=C/C(=O)OCCCC(=O)N[C@@H](CC(C)C)C(=O)N2CCC[C@H]2C(=O)N[C@@H](Cc2ccccc2)C(=O)N1 gave an inhibition at 30 µM (HCC1806) of 97%.
Work on COC(=O)[C@]1(C)CC[C@]2(C)CC[C@]3(C)C4=CC=C5C(=CC(=O)C(O)=C5C)[C@]4(C)CC[C@@]3(C)[C@@H]2C1 [PRISTIMERIN] yielded an IC50 (MDA-MB-231 [8]) of 1010 nM, an IC50 (SMMC-7721) of 1970 nM and an IC50 (QGY-7703) of 2340 nM. For the same compound, the IC50 (L02) was 3600 nM.
Work on O=C1NC(/C=C2/C(c3ccccc3)=C(c3ccccc3)c3ccccc32)=NC2c3ccccc3OC12 (stereo not drawn) yielded an IC50 (CAL-27) of 8790 nM.
For CCOC(=O)C1=C(Nc2ccc(Cl)cc2)C[C@H](c2ccc(OC)cc2)N(c2ccc(Cl)cc2)[C@H]1c1ccc(OC)cc1, the MIC [9] was 12.5 µg/mL.
COC(=O)[C@H](CC(C)C)NC(=O)[C@H](Cc1ccccc1C1=CC(=O)C=CC1=O)NC(=O)[C@@H](NC(=O)OC(C)(C)C)C(C)(C)C showed an IC50 (HeLa [10]) of 40000 nM.
COC(=O)[C@]1(C)CC[C@]2(C)CC[C@]3(C)C4=CC=C5C(=CC(=O)C(OC(=O)CCCc6cn(CCCO[C@@H]7O[C@H](CO)[C@@H](O)[C@H](O)[C@H]7O)nn6)=C5C)[C@]4(C)CC[C@@]3(C)[C@@H]2C1 gave an IC50 (SMMC-7721) of 2780 nM, an IC50 (QGY-7703) of 5560 nM and an IC50 (L02) of 4610 nM.
Cc1cccc2c1C(=O)N1CCN(c3ccccc3)C1(C(F)(F)F)C2 (stereo not drawn) gave an IC50 (HeLa [11]) of 1430 nM.
With CCOC(=O)C1=C(Nc2ccc(OC)cc2)C[C@H](c2ccc(Cl)cc2)N(c2ccc(OC)cc2)[C@H]1c1ccc(Cl)cc1 the IC50 (MCF7 [12]) was 34.2 µg/mL (≈ 56.6 µM).
For CC[C@H](C)[C@@H]1NC(=O)[C@H](Cc2ccccc2)NC(=O)CC[C@@H](C(=O)OC)NC(=O)COC(=O)/C=C/c2cccc3c(c[nH]c23)C[C@@H](C(=O)OCc2ccccc2)NC1=O, the inhibition at 30 µM (HCC1806) was 99%.
CC(=O)O[C@@]12CO[C@@H]1C[C@H](O)[C@@]1(C)C(=O)[C@H](O)C3=C(C)[C@@H](OC(=O)[C@H](O)[C@@H](NC(=O)OC(C)(C)C)c4ccccc4)C[C@@](O)([C@@H](OC(=O)c4ccccc4)[C@H]21)C3(C)C [DOCETAXEL ANHYDROUS] was tested, and the IC50 (KBv200) was 104 nM and the IC50 (K562/Adr [13]) was 1030 nM.
CCOc1cc(CC(=O)N[C@@H](CC(C)C)c2ccccc2N2CCCCC2)cc2c1C(=O)N[C@@H](C)C(=O)N[C@@H](C(C)C)C(=O)OC/C(c1ccccc1)=C\C2 was tested, and the “fold change (FC)” value (K562/Adr [14]) was 176.3.
Compound O=C1c2ccccc2-n2c1c(-c1ccc(Cl)cc1Br)c(S(=O)(=O)c1ccccc1)c2-c1ccccc1 has an IC50 [15] of 82.3 nM.
CC12CCCCN1c1ccc(Br)cc1C(=O)O2 (stereo not drawn) gave an MIC (Candida albicans) of 12.5 µg/mL (≈ 42.2 µM).
For Cc1ccccc1C(c1c[nH]c2ccccc12)c1c[nH]c2ccccc12, the IC50 (MCF7 [16]) was 5690 nM.
Work on CCOc1cccc(-c2ccc3c(c2)c2ccccc2n3C)c1C(=O)Nc1cccc2cccnc12 yielded an IC50 (HeLa [3]) of 9600 nM and an IC50 (HCT-116 [17]) of 15200 nM.
Cc1ccccc1NC1(C(F)(F)F)Cc2ccccc2C(=O)N1CCO (stereo not drawn) gave an IC50 (HeLa [11]) of 1130 nM.
COc1ccc(-c2c(-c3cc(OC)c(OC)c(OC)c3)cc(-c3cc(OC)c(OC)c(OC)c3)oc2=O)cc1OC was tested, and the inhibition at 20 µM (HCT-116 [18]) was 89.4% and the inhibition at 20 µM (A549) was 82.9%.
With O=C1C=CC2(O)c3c(nc4c(c3-c3ccccc3)c3ccccc3n4Cc3ccccc3)OC2C1 (stereo not drawn) the IC50 (K562) was 2100 nM and the IC50 (Jurkat) was 900 nM.
For C[Si](C)(C)c1ccc(C(c2c[nH]c3ccccc23)c2c[nH]c3ccccc23)cc1, the IC50 (MCF7 [16]) was 6710 nM.

Source: ChEMBL document CHEMBL6134800, “Applications of innovative synthetic strategies in anticancer drug discovery: The driving force of new chemical reactions” (Bioorg Med Chem Lett, 2025)
